According to ChEMBL document CHEMBL6096690, “Synthesis and Biological Evaluation of Peripheral HTR2A Antagonists for Colorectal Cancer” (J Med Chem, 2025):

Target: 5-hydroxytryptamine receptor 2A (Homo sapiens, UniProt P28223)
Assay: Antagonist activity at 5HTR2A (unknown origin) assessed as inhibition of 5-HTR2A

Chain of 5-hydroxytryptamine receptor 2A (P28223 whole entry): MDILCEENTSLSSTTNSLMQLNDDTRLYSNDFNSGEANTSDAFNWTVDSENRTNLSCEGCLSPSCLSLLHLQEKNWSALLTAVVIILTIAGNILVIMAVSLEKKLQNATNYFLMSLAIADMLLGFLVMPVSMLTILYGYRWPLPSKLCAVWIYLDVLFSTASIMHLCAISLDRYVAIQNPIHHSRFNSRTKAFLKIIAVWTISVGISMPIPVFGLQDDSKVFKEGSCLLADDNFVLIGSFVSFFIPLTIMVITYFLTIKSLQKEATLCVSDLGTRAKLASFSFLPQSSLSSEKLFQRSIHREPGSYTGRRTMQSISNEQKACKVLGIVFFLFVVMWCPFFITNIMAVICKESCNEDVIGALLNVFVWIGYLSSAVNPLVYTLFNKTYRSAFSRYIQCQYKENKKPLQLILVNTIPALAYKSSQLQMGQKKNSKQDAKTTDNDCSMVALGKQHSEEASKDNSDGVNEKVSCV

IC50: 667 nM
Compound: O=C(c1ccc(F)cc1)C1CCN(CC(O)COc2ccc(CNC(=O)N(Cc3ccc(F)cc3)C3CCNCC3)cc2)CC1 (stereo unspecified)
